Test results taken from patent US20210177869A1, “METHODS AND COMBINATIONS FOR MODULATING TOLERANCE TO OPIATES, OPIOIDS OR OPIOID ANALGESICS AND TREATING ACUTE AND CHRONIC PAIN” (CHINA MEDICAL UNIVERSITY, priority 2018, published 2021).

Assays:
Assay type in all cases: in vivo
[1] = system: mice; experiment: Mechanical allodynia, von Frey filament test; settings: for withdraw threshold in von Frey filament test: WT and xCT KO mice (both genotypes), ip morphine 10 mg/kg/day or methadone 4 mg/kg/day for 7 days; for withdraw threshold in von Frey filament test, compared to vehicle: wild-type mice, SSZ 30 mg/kg/day, morphine 10 mg/kg/day, methadone 5 mg/kg/day or combinations for 8 days
Procedure: (§1) The thermal hyperalgesia was evaluated by placing the mice in a 1000 ml beaker and on the 56±2° C. hot plate with the maximum of 35 second to prevent tissue damage. The time is recorded when the mice jumps on to the edge of the beaker, the value is considered as the withdrawal threshold. A customized transparent acrylic chamber with the size of 20×20×20 cm and 5 mm thick acrylic with 2 mm diameter holes throughout the entire platform is used to determine the mechanical allodynia and thermal hyperalgesia. Mice were placed in the chamber to evaluate the mechanical allodynia by applying a 0.6 g pressure von Frey hair (Touch-Test Sensory Evaluator, North Coast Medical, Inc) to the hind paws of the mice for five times with a five second interval. If the mice hind paw is withdrawn from the platform over three times, the pressure of the von Frey hair will be recorded and regarded as the withdrawal threshold.

[2] = system: mice; experiment: Opioid-induced constipation, fecal collection and stool weight; settings: wild-type mice; SSZ 30 mg/kg, morphine 10 mg/kg or combination, ip, 7 days
Procedure: Fecal collections and the stool weighed were recorded before and after morphine and/or SSZ administration. The fecal was collected every two days.
Opioid-induced constipation is a side effect for using opioid pain relief medication.

[3] = system: mice; experiment: Thermal hyperalgesia, hot plate test; settings: for latency of first sign of pain in the hot-plate test: WT and xCT KO mice (both genotypes), ip morphine 10 mg/kg/day or methadone 4 mg/kg/day for 7 days; for analgesic effect in xCT KO mice compared to WT mice: hot plate and von Frey tests, morphine 10 mg/kg/day or methadone 4 mg/kg/day for 7 days; for latencies of the first sign of pain in the hot-plate test, compared to vehicle: wild-type mice, SSZ 30 mg/kg/day, morphine 10 mg/kg/day, methadone 5 mg/kg/day or combinations for 8 days
Procedure: as §1

[4] = system: mice; experiment: Opioid tolerance, morphine percent maximal possible effect (% MPE) over 7 days; settings: WT mice; for development of tolerance, in comparison to the morphine alone group / number of days of morphine-induced analgesic effect, in comparison to the morphine alone group: co-treatment with morphine 20 mg/kg/day, SSZ 60 mg/kg/day or capsazepine 10 mg/kg/day, twice daily 7 days
Procedure: To test whether system xc^− plays a role in opioid tolerance, WT and xCT KO mice were injected intraperitoneally with morphine twice daily and tested on 7 days continuously for determination of their respective morphine percent maximal possible effect (% MPE). Analgesic effect was expressed as % MPE, where % MPE=(test−baseline latency)/(cutoff−baseline)×100. […] Next, the WT mice were received the co-administration of system xc^− inhibitor, SSZ or capsazepine, and morphine twice daily for one-week observation.

[5] = system: morphine-dependent mice; experiment: Naloxone-precipitated withdrawal jumping in mice with chronic morphine dependence; settings: for naloxone-induced jumping behavior: naloxone 5 mg/kg + SSZ 30 mg/kg or capsazepine 5 mg/kg
Procedure: Chronic morphine dependence was induced by repeated injections for four consecutive days with an escalating dose schedule. Mice received morphine twice daily (morning and afternoon) for 4 days (day 1: 12 mg/kg and 25 mg/kg; day 2: 25 mg/kg and 50 mg/kg; day 3: 50 mg/kg and 75 mg/kg; day 4: 75 mg/kg and 100 mg/kg). On the testing day (day 5), a final morphine dose (50 mg/kg) was administered before exam.
A single dose of naloxone (5 mg/kg) was administered to all mice 60 mins after the final morphine dose. Immediately, following with naloxone injection, animals were placed into individual Plexiglas observation cylinders. Withdrawal jumping response symptoms were recorded and the frequency of jumps for each mouse was summed over one hour.
It was first determined whether system xc^− contributes to opioid dependence. WT and xCT KO mice were received the repeated injections for four consecutive days with an escalating dose schedule for the induction of chronic morphine dependence. Mice received morphine twice daily (morning and afternoon) for 4 days (day 1: 12 mg/kg and 25 mg/kg; day 2: 25 mg/kg and 50 mg/kg; day 3: 50 mg/kg and 75 mg/kg; day 4: 75 mg/kg and 100 mg/kg). On the testing day (day 5), a final morphine dose (50 mg/kg) was administered before naloxone-induced acute withdrawal syndromes. […] To observe the effect of system xc^− inhibits in opioid withdrawal, mice with chronic morphine dependence were randomly divided into the following groups (sample size N=6 in each group): group 1: control mice without any treatment; group 2: morphine-dependent mice with vehicle treatment; group 3: morphine-dependent mice with naloxone (5 mg/kg) treatment; group 4: morphine-dependent mice with naloxone (5 mg/kg)+methadone (10 mg/kg) treatment; group 5: morphine-dependent mice with naloxone (5 mg/kg)+SSZ (30 mg/kg) treatment; and group 6: morphine-dependent mice with naloxone (5 mg/kg)+capsazepine (5 mg/kg).

| SMILES | withdraw threshold in von Frey filament test [1] | withdraw threshold in von Frey filament test, compared to vehicle [1] | opioid-induced constipation / defecation (stool weight) [2] | latency of first sign of pain in the hot-plate test [3] | analgesic effect in xCT KO mice compared to WT mice [3] | latencies of the first sign of pain in the hot-plate test, compared to vehicle [3] | opioid tolerance (% MPE) ([4]; morphine 20 mg/kg/day ip twice daily, 7 days) | development of tolerance, in comparison to the morphine alone group [4] | number of days of morphine-induced analgesic effect, in comparison to the morphine alone group [4] | naloxone-induced jumping behavior [5] | jumping behavior (withdrawal) ([5]; naloxone 5 mg/kg, observed one hour) |
| --- | --- | --- | --- | --- | --- | --- | --- | --- | --- | --- | --- |
| CN1CC[C@]23c4c5ccc(O)c4O[C@H]2[C@@H](O)C=C[C@H]3[C@H]1C5 [morphine] | significantly increased | more than those in vehicle-treated mice | developed the opioid-induced constipation | significantly increased | higher than that in WT mice | more than those in vehicle-treated mice | significant opioid tolerance on day 3 | – | – | – | – |
| CCC(=O)C(CC(C)N(C)C)(c1ccccc1)c1ccccc1 (stereo not shown) [methadone] | significantly increased | more than those in vehicle-treated mice | – | significantly increased | higher than that in WT mice | more than those in vehicle-treated mice | – | – | – | – | – |
| O=C(O)c1cc(/N=N/c2ccc(S(=O)(=O)Nc3ccccn3)cc2)ccc1O [SSZ, sulfasalazine] | – | more than those in vehicle-treated mice | didn't decreased or increased defecation | – | – | more than those in vehicle-treated mice | – | significantly attenuated the development of tolerance | prolong the number of days of morphine-induced analgesic effect | inhibited naloxone-induced jumping behavior | – |
| Oc1cc2c(cc1O)CN(C(=S)NCCc1ccc(Cl)cc1)CCC2 [capsazepine] | – | – | – | – | – | – | – | significantly attenuated the development of tolerance | prolong the number of days of morphine-induced analgesic effect | inhibited naloxone-induced jumping behavior | – |
| C=CCN1CC[C@]23c4c5ccc(O)c4O[C@H]2C(=O)CC[C@@]3(O)[C@H]1C5 [naloxone] | – | – | – | – | – | – | – | – | – | – | significant jumping behavior compared to other groups |
